US5037841A, “1,3-disubstituted pyrrolidines” (Bayer Aktiengesellschaft, priority 1988, dated 1991)
Counter-ions that a name gives are not always drawn.

target: T1, 5-HT1 receptor (Bos taurus, UniProt F6Q2H9); assay: Affinity for the 5-HT1 receptor: receptor binding studies using calf hippocampus membrane preparations, 3H-serotonin as radioligand; settings: Comparison compound of DE-A 1,964,511; test conditions not restated; read-out: Ki value (comparison compound)
T1 construct: calf hippocampus membrane preparations; from tissue; host or cells: calf hippocampus membranes
T1 sequence (F6Q2H9 1-422): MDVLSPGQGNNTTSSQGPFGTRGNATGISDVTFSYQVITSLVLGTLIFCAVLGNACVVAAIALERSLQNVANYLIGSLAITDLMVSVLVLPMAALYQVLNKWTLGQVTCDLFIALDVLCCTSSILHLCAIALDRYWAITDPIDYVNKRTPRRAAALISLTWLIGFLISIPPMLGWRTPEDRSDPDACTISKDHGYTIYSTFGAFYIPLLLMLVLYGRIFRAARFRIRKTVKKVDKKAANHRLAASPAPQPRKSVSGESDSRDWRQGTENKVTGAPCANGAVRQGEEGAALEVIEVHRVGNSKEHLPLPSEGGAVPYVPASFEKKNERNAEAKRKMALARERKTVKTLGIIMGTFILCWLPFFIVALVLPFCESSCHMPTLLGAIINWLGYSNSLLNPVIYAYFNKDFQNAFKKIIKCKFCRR
Excerpt: Affinity for the 5-HT1 receptor
The high affinity of the compound according to the invention for 5-hydroxytryptamine receptors of the subtype […] is represented by way of example in Table 4. The values indicated are data which have been determined from receptor binding studies using calf hippocampus membrane preparations. For this purpose, ^3 H-serotonin was used as a radioactively labelled ligand.

| Ki [nM] | Compound |
| --- | --- |
| 1000 | COc1ccccc1OC1CCN(C(C)C)C1 (stereo not shown) [Comparison, reference compound] |

same assay, conditions: calf hippocampus membranes; 3H-serotonin radioligand; read-out: Ki

| Compound | Ki [nM] |
| --- | --- |
| COc1ccccc1OC1CCN(CCCCN2C(=O)c3ccccc3S2(=O)=O)C1 (stereo not shown) [Example 8, 3-(2-methoxyphenoxy)-1-[4-(1,1-dioxido-3-oxo-2,3-dihydrobenzisothiazol-2-yl)butyl]-pyrrolidine] | 1.3 |
| N#Cc1ccccc1OC1CCN(CCCCN2C(=O)c3ccccc3S2(=O)=O)C1 (stereo not shown) [Example 1, 3-(2-Cyanophenoxy)-1-[4-(1,1-dioxido-3-oxo-2,3-dihydrobenzisothiazol-2-yl)butyl]-pyrrolidine oxalate] | 2 |
| O=C1c2ccccc2S(=O)(=O)N1CCCCN1CCC(Oc2ccccc2)C1 (stereo not shown) [Example 6] | 9 |

Next, values leading:

| Ki [nM] | Compound |
| --- | --- |
| 7 | NC(=O)c1ccccc1OC1CCN(CCCCN2C(=O)c3ccccc3S2(=O)=O)C1 (stereo not shown) [Example 19, 3-(2-carbamoylphenoxy)-1-[4-(1,1-dioxido-3-oxo-2,3-dihydrobenzisothiazol-2-yl)butyl]-pyrrolidine] |
| 6 | COc1cccc(OC2CCN(CCCCN3C(=O)c4ccccc4S3(=O)=O)C2)c1 (stereo not shown) [Example 10, 3-(3-methoxyphenoxy)-1-[4-(1,1-dioxido-3-oxo-2,3-dihydrobenzisothiazol-2-yl)butyl]-pyrrolidine] |
| 0.3 | O=C1c2ccccc2S(=O)(=O)N1CCCCN1CCC(Oc2cccc3ccccc23)C1 (stereo not shown) [Example 23, 3-(1-naphthyloxy)-1-[4-(1,1-dioxido-3-oxo-2,3-dihydrobenzisothiazol-2-yl)butyl]-pyrrolidine] |
